Measured values taken from US20070049564A1 (Wyeth, priority 2005, published 2007).
Converted amounts (≈) assume the structure as drawn. Like-named read-outs stand apart in the source and are kept apart here.

How the values were obtained:
S. pyogenes GC 4563 = test: MIC, broth microdilution; conditions: Streptococcus pyogenes, GC4563, S. pyogenes GC 4563
E. coli GC 3226 = test: MIC, broth microdilution; conditions: Escherichia coli, GC3226, E. coli GC 3226
E. faecium GC 2243 = test: MIC, broth microdilution; conditions: Enterococcus faecium, GC2243, E. faecium GC 2243
S. aureus GC 6466 = test: MIC, broth microdilution; conditions: Staphylococcus aureus, GC6466, S. aureus GC 6466
E. faecium GC 4556 = test: MIC, broth microdilution; conditions: Enterococcus faecium, GC4556, E. faecium GC 4556
E. coli GC 2231 = test: MIC, broth microdilution; conditions: Escherichia coli, GC2231, E. coli GC 2231
S. aureus GC 6335 = test: MIC, broth microdilution; conditions: Staphylococcus aureus, GC6335, S. aureus GC 6335
E. coli GC 2234 = test: MIC, broth microdilution; conditions: Escherichia coli, GC2234, E. coli GC 2234
E. coli GC 2271 = test: MIC, broth microdilution; conditions: Escherichia coli, GC2271, E. coli GC 2271
Experimental: Antimicrobial susceptibility testing. The in vitro activities of the antibiotics are determined by the broth microdilution method as recommended by the National Committee for Clinical Laboratory Standards (NCCLS) (1). Mueller-Hinton II broth (MHBII)(BBL Cockeysville, Md.) is the medium employed in the testing procedures. Microtiter plates containing serial dilutions of each antimicrobial agent are inoculated with each organism to yield the appropriate density (10^5 CFU/ml) in a 100 μl final volume. The plates are incubated for 18-22 hours at 35° C. in ambient air.
Representative compounds were first incubated in mouse serum for an hour prior to the in vitro testing against a panel of selected gram-positive and gram-negative bacteria strains. All compounds were also pre-incubated in water for an hour prior to testing as control.

P. aeruginosa GC 2214 = test: MIC, broth microdilution; conditions: Pseudomonas aeruginosa, GC2214, P. aeruginosa GC 2214
E. coli GC 2236 = test: MIC, broth microdilution; conditions: Escherichia coli, GC2236, E. coli GC 2236
Staph. = test: Range of MIC for Staph. strains, including MRSA; conditions: Staphylococcus aureus, MRSA
S. aureus GC 2216 = test: MIC, broth microdilution; conditions: Staphylococcus aureus, GC2216, S. aureus GC 2216
E. coli GC 2270 = test: MIC, broth microdilution; conditions: Escherichia coli, GC2270, E. coli GC 2270
S. aureus GC 6469 = test: MIC, broth microdilution; conditions: Staphylococcus aureus, GC6469, S. aureus GC 6469
E. coli = test: Range of MIC for E. coli strains; conditions: Escherichia coli
E. coli GC 2233 = test: MIC, broth microdilution; conditions: Escherichia coli, GC2233, E. coli GC 2233
E. faecalis GC 2265 = test: MIC, broth microdilution; conditions: Enterococcus faecalis, GC2265, E. faecalis GC 2265
E. coli GC 2203 = test: MIC, broth microdilution; conditions: Escherichia coli, GC2203, E. coli GC 2203
E. coli GC 2232 = test: MIC, broth microdilution; conditions: Escherichia coli, GC2232, E. coli GC 2232

CCCN(CC(=O)Nc1cc(N(C)C)c2c(c1O)C(=O)C1=C(O)[C@]3(O)C(=O)C(C(N)=O)=C(O)[C@@H](N(C)C)[C@@H]3C[C@@H]1C2)C(=O)OCOC(=O)C(C)(C)C [Example 9, ({[(2-{[(5aR,6aS,7S,10aS)-9-(aminocarbonyl)-4,7-bis(dimethylamino)-1,8,10a,11-tetrahydroxy-10,12-dioxo-5,5a,6,6a,7,10,10a,12-octahydrotetracen-2-yl]amino}-2-oxoethyl)(propyl)amino]carbonyl}oxy)methyl pivalate]
MIC (S. pyogenes GC 4563; Mouse Serum pre-incubation): < 0.06 µg/mL
MIC (S. pyogenes GC 4563; Water pre-incubation): < 0.06 µg/mL
MIC (E. coli GC 3226; Mouse Serum pre-incubation): 2 µg/mL (≈ 2.74 µM)
MIC (E. coli GC 3226; Water pre-incubation): 16 µg/mL (≈ 21.9 µM)
MIC (E. faecium GC 2243; Mouse Serum pre-incubation): 0.25 µg/mL (≈ 0.343 µM)
MIC (E. faecium GC 2243; Water pre-incubation): 0.5 µg/mL (≈ 0.685 µM)
MIC (S. aureus GC 6466; Mouse Serum pre-incubation): 0.12 µg/mL (≈ 0.164 µM)
MIC (S. aureus GC 6466; Water pre-incubation): 0.12 µg/mL (≈ 0.164 µM)
MIC (E. faecium GC 4556; Mouse Serum pre-incubation): 0.25 µg/mL (≈ 0.343 µM)
MIC (E. faecium GC 4556; Water pre-incubation): 0.5 µg/mL (≈ 0.685 µM)
MIC (E. coli GC 2231; Mouse Serum pre-incubation): 2 µg/mL (≈ 2.74 µM)
MIC (E. coli GC 2231; Water pre-incubation): 64 µg/mL (≈ 87.7 µM)
MIC (S. aureus GC 6335; Mouse Serum pre-incubation): 0.25 µg/mL (≈ 0.343 µM)
MIC (S. aureus GC 6335; Water pre-incubation): 0.5 µg/mL (≈ 0.685 µM)
MIC (E. coli GC 2234; Mouse Serum pre-incubation): 0.5 µg/mL (≈ 0.685 µM)
MIC (E. coli GC 2234; Water pre-incubation): 8 µg/mL (≈ 11 µM)
MIC (E. coli GC 2271; Mouse Serum pre-incubation): 0.5 µg/mL (≈ 0.685 µM)
MIC (E. coli GC 2271; Water pre-incubation): 8 µg/mL (≈ 11 µM)
MIC (P. aeruginosa GC 2214; Mouse Serum pre-incubation): 16 µg/mL (≈ 21.9 µM)
MIC (P. aeruginosa GC 2214; Water pre-incubation): > 64 µg/mL
MIC (E. coli GC 2236; Mouse Serum pre-incubation): 1 µg/mL (≈ 1.37 µM)
MIC (E. coli GC 2236; Water pre-incubation): 8 µg/mL (≈ 11 µM)
MIC (Staph.; read-out: Range of MIC, Staph (Mouse Serum)): 0.06 to 2 µg/mL (≈ 0.0822 to 2.74 µM)
MIC (Staph.; read-out: Range of MIC, Staph (Water)): 0.12 to 2 µg/mL (≈ 0.164 to 2.74 µM)
MIC (Staph.; read-out: Range of MIC, Staph. (mouse serum)): 0.06 to 1 µg/mL (≈ 0.0822 to 1.37 µM)
MIC (Staph.; read-out: Range of MIC, Staph. (water)): 0.12 to 2 µg/mL (≈ 0.164 to 2.74 µM)
MIC (S. aureus GC 2216; Mouse Serum pre-incubation): 0.25 µg/mL (≈ 0.343 µM)
MIC (S. aureus GC 2216; Water pre-incubation): 0.5 µg/mL (≈ 0.685 µM)
MIC (E. coli GC 2270; Mouse Serum pre-incubation): 0.5 µg/mL (≈ 0.685 µM)
MIC (E. coli GC 2270; Water pre-incubation): 4 µg/mL (≈ 5.48 µM)
MIC (S. aureus GC 6469; Mouse Serum pre-incubation): 1 µg/mL (≈ 1.37 µM)
MIC (S. aureus GC 6469; Water pre-incubation): 2 µg/mL (≈ 2.74 µM)
MIC (E. coli; 20 h, read-out: Range of MIC, E. coli (Mouse Serum)): 0.5 to 2 µg/mL (≈ 0.685 to 2.74 µM)
MIC (E. coli; read-out: Range of MIC, E. coli (Water)): 4 to 64 µg/mL (≈ 5.48 to 87.7 µM)
MIC (E. coli; read-out: Range of MIC, E. coli (mouse serum)): 0.5 to 2 µg/mL (≈ 0.685 to 2.74 µM)
MIC (E. coli; read-out: Range of MIC, E. coli (water)): 4 to 64 µg/mL (≈ 5.48 to 87.7 µM)
MIC (E. coli GC 2233; Mouse Serum pre-incubation): 0.5 µg/mL (≈ 0.685 µM)
MIC (E. coli GC 2233; Water pre-incubation): 4 µg/mL (≈ 5.48 µM)
MIC (E. faecalis GC 2265; Mouse Serum pre-incubation): 1 µg/mL (≈ 1.37 µM)
MIC (E. faecalis GC 2265; Water pre-incubation): 2 µg/mL (≈ 2.74 µM)
MIC (E. coli GC 2203; Mouse Serum pre-incubation): 0.5 µg/mL (≈ 0.685 µM)
MIC (E. coli GC 2203; Water pre-incubation): 4 µg/mL (≈ 5.48 µM)
MIC (E. coli GC 2232; Mouse Serum pre-incubation): 1 µg/mL (≈ 1.37 µM)
MIC (E. coli GC 2232; Water pre-incubation): 8 µg/mL (≈ 11 µM)
